ChEMBL document CHEMBL3596184, “Prostate tumor specific peptide-peptoid hybrid prodrugs” (2015)
Numbered stars: 1 amine (or outer) side, 2 acyl side, 3 side chain; on linkers, the order of the positions; unused ones are H or OH. Square brackets hold non-standard residues; d marks the D form. Peptide text beside a SMILES is read from it. γGlu = O=C(O)[C@H](CCC(=O)[*:2])N[*:1]; Hyp = O=C(O)[C@@H]1C[C@@H](O)CN1; Nspe = C[C@H](NCC(=O)O)c1ccccc1; Chg = N[C@H](C(=O)O)C1CCCCC1; Nlys = NCCCCNCC(=O)O

Legend:
Format in all cases: functional
PC-3 = assay: Cytotoxicity against human PC3 cells assessed as induction of cell death after 48 hrs by MTS assay; conditions: PC-3, 48 h, read-out: LC50 (the source's name)
LNCaP [1] = assay: Selectivity ratio of LC50 for human PC3 cells to LC50 for human LNCaP cells
LNCaP [2] = assay: Cytotoxicity against human LNCAP cells assessed as induction of cell death after 48 hrs by MTS assay; conditions: read-out: LC50 (the source's name)

SMILES | CC50 (PC-3) [µM] | RatioLC50 (LNCaP [1]) | CC50 (LNCaP [2]) [µM]
C[C@@H](c1ccccc1)N(CC(N)=O)C(=O)CN(C(=O)CN(CCCCN)C(=O)CN(C(=O)CN(C(=O)CN(CCCCN)C(=O)CN(C(=O)CN(C(=O)CN(CCCCN)C(=O)CN(C(=O)CN(C(=O)CN(CCCCN)C(=O)CC[C@H](N)C(=O)O)[C@@H](C)c1ccccc1)[C@@H](C)c1ccccc1)[C@@H](C)c1ccccc1)[C@@H](C)c1ccccc1)[C@@H](C)c1ccccc1)[C@@H](C)c1ccccc1)[C@@H](C)c1ccccc1 | 12 | 1.3 | 9.5
CC(=O)N[C@@H](CCC(=O)N[C@@H](CCC(=O)N[C@@H](Cc1cnc[nH]1)C(=O)N[C@@H](CO)C(=O)N[C@@H](CO)C(=O)N[C@@H](CCCCN)C(=O)N[C@@H](CC(C)C)C(=O)N[C@@H](CCC(N)=O)C(=O)N(CCCCN)CC(=O)N(CC(=O)N(CC(=O)N(CCCCN)CC(=O)N(CC(=O)N(CC(=O)N(CCCCN)CC(=O)N(CC(=O)N(CC(=O)N(CCCCN)CC(=O)N(CC(=O)N(CC(N)=O)[C@@H](C)c1ccccc1)[C@@H](C)c1ccccc1)[C@@H](C)c1ccccc1)[C@@H](C)c1ccccc1)[C@@H](C)c1ccccc1)[C@@H](C)c1ccccc1)[C@@H](C)c1ccccc1)[C@@H](C)c1ccccc1)C(=O)O)C(=O)O (Ac-[γGlu][γGlu]HSSKLQ[Nlys][Nspe][Nspe][Nlys][Nspe][Nspe][Nlys][Nspe][Nspe][Nlys][Nspe][Nspe]-NH2) | 28 | 1.6 | 18
CC(=O)N[C@@H](CCC(=O)N[C@@H](CCC(=O)N[C@@H](CCC(=O)N[C@@H](Cc1cnc[nH]1)C(=O)N[C@@H](CO)C(=O)N[C@@H](CO)C(=O)N[C@@H](CCCCN)C(=O)N[C@@H](CC(C)C)C(=O)N[C@@H](CCC(N)=O)C(=O)N(CCCCN)CC(=O)N(CC(=O)N(CC(=O)N(CCCCN)CC(=O)N(CC(=O)N(CC(=O)N(CCCCN)CC(=O)N(CC(=O)N(CC(=O)N(CCCCN)CC(=O)N(CC(=O)N(CC(N)=O)[C@@H](C)c1ccccc1)[C@@H](C)c1ccccc1)[C@@H](C)c1ccccc1)[C@@H](C)c1ccccc1)[C@@H](C)c1ccccc1)[C@@H](C)c1ccccc1)[C@@H](C)c1ccccc1)[C@@H](C)c1ccccc1)C(=O)O)C(=O)O)C(=O)O (Ac-[γGlu][γGlu][γGlu]HSSKLQ[Nlys][Nspe][Nspe][Nlys][Nspe][Nspe][Nlys][Nspe][Nspe][Nlys][Nspe][Nspe]-NH2) | 37 | 1.2 | 31
CC(=O)N[C@@H](CCC(=O)N[C@@H](CCC(=O)N[C@@H](CCC(=O)N[C@@H](CCC(=O)N[C@@H](Cc1cnc[nH]1)C(=O)N[C@@H](CO)C(=O)N[C@@H](CO)C(=O)N[C@@H](CCCCN)C(=O)N[C@@H](CC(C)C)C(=O)N[C@@H](CCC(N)=O)C(=O)N(CCCCN)CC(=O)N(CC(=O)N(CC(=O)N(CCCCN)CC(=O)N(CC(=O)N(CC(=O)N(CCCCN)CC(=O)N(CC(=O)N(CC(=O)N(CCCCN)CC(=O)N(CC(=O)N(CC(N)=O)[C@@H](C)c1ccccc1)[C@@H](C)c1ccccc1)[C@@H](C)c1ccccc1)[C@@H](C)c1ccccc1)[C@@H](C)c1ccccc1)[C@@H](C)c1ccccc1)[C@@H](C)c1ccccc1)[C@@H](C)c1ccccc1)C(=O)O)C(=O)O)C(=O)O)C(=O)O (Ac-[γGlu][γGlu][γGlu][γGlu]HSSKLQ[Nlys][Nspe][Nspe][Nlys][Nspe][Nspe][Nlys][Nspe][Nspe][Nlys][Nspe][Nspe]-NH2) | 47 | 1.3 | 35
CC(C)C[C@H](NC(=O)[C@H](CCCCN)NC(=O)[C@H](CO)NC(=O)[C@H](CO)NC(=O)[C@@H](N)Cc1cnc[nH]1)C(=O)N[C@@H](CCC(N)=O)C(=O)N(CCCCN)CC(=O)N(CC(=O)N(CC(=O)N(CCCCN)CC(=O)N(CC(=O)N(CC(=O)N(CCCCN)CC(=O)N(CC(=O)N(CC(=O)N(CCCCN)CC(=O)N(CC(=O)N(CC(N)=O)[C@@H](C)c1ccccc1)[C@@H](C)c1ccccc1)[C@@H](C)c1ccccc1)[C@@H](C)c1ccccc1)[C@@H](C)c1ccccc1)[C@@H](C)c1ccccc1)[C@@H](C)c1ccccc1)[C@@H](C)c1ccccc1 (H-HSSKLQ[Nlys][Nspe][Nspe][Nlys][Nspe][Nspe][Nlys][Nspe][Nspe][Nlys][Nspe][Nspe]-NH2) | 19.6 | 2.1 | 9.2
C[C@@H](c1ccccc1)N(CC(N)=O)C(=O)CN(C(=O)CN(CCCCN)C(=O)CN(C(=O)CN(C(=O)CN(CCCCN)C(=O)CN(C(=O)CN(C(=O)CN(CCCCN)C(=O)CN(C(=O)CN(C(=O)CN(CCCCN)C(=O)[C@@H]1CCCN1C(=O)[C@H](CO)NC(=O)[C@H](CO)NC(=O)[C@H](CCC(N)=O)NC(=O)[C@@H](NC(=O)[C@H](CO)NC(=O)[C@H](CO)NC(=O)[C@@H]1C[C@@H](O)CN1)C1CCCCC1)[C@@H](C)c1ccccc1)[C@@H](C)c1ccccc1)[C@@H](C)c1ccccc1)[C@@H](C)c1ccccc1)[C@@H](C)c1ccccc1)[C@@H](C)c1ccccc1)[C@@H](C)c1ccccc1 (H-[Hyp]SS[Chg]QSSP[Nlys][Nspe][Nspe][Nlys][Nspe][Nspe][Nlys][Nspe][Nspe][Nlys][Nspe][Nspe]-NH2) | 35 | 2.1 | 17
CC(C)C[C@H](NC(=O)[C@H](CCCCN)NC(=O)[C@H](CO)NC(=O)[C@H](CO)NC(=O)[C@H](Cc1cnc[nH]1)NC(=O)CNCCCCN)C(=O)N[C@@H](CCC(N)=O)C(=O)N(CC(=O)N(CC(=O)N(CCCCN)CC(=O)N(CC(=O)N(CC(=O)N(CCCCN)CC(=O)N(CC(=O)N(CC(=O)N(CCCCN)CC(=O)N(CC(=O)N(CC(N)=O)[C@@H](C)c1ccccc1)[C@@H](C)c1ccccc1)[C@@H](C)c1ccccc1)[C@@H](C)c1ccccc1)[C@@H](C)c1ccccc1)[C@@H](C)c1ccccc1)[C@@H](C)c1ccccc1)[C@@H](C)c1ccccc1 (H-[Nlys]HSSKLQ[Nspe][Nspe][Nlys][Nspe][Nspe][Nlys][Nspe][Nspe][Nlys][Nspe][Nspe]-NH2) | 16.9 | 3 | 5.7
CC(C)C[C@H](NC(=O)[C@H](CCCCN)NC(=O)[C@H](CO)NC(=O)[C@H](CO)NC(=O)[C@H](Cc1cnc[nH]1)NC(=O)CN(CCCCN)C(=O)CN(C(=O)CN(C(=O)CNCCCCN)[C@@H](C)c1ccccc1)[C@@H](C)c1ccccc1)C(=O)N[C@@H](CCC(N)=O)C(=O)N(CC(=O)N(CC(=O)N(CCCCN)CC(=O)N(CC(=O)N(CC(=O)N(CCCCN)CC(=O)N(CC(=O)N(CC(=O)N(CCCCN)CC(N)=O)[C@@H](C)c1ccccc1)[C@@H](C)c1ccccc1)[C@@H](C)c1ccccc1)[C@@H](C)c1ccccc1)[C@@H](C)c1ccccc1)[C@@H](C)c1ccccc1 (H-[Nlys][Nspe][Nspe][Nlys]HSSKLQ[Nspe][Nspe][Nlys][Nspe][Nspe][Nlys][Nspe][Nspe][Nlys]-NH2) | 19.1 | 3.2 | 5.9
C[C@@H](c1ccccc1)N(CC(N)=O)C(=O)CN(C(=O)CN(CCCCN)C(=O)CN(C(=O)CN(C(=O)CN(CCCCN)C(=O)CN(C(=O)CN(C(=O)CN(CCCCN)C(=O)CN(C(=O)CN(C(=O)CNCCCCN)[C@@H](C)c1ccccc1)[C@@H](C)c1ccccc1)[C@@H](C)c1ccccc1)[C@@H](C)c1ccccc1)[C@@H](C)c1ccccc1)[C@@H](C)c1ccccc1)[C@@H](C)c1ccccc1 (H-[Nlys][Nspe][Nspe][Nlys][Nspe][Nspe][Nlys][Nspe][Nspe][Nlys][Nspe][Nspe]-NH2) | 8.5 | 1.7 | 5
CC(C)C[C@H](NC(=O)[C@H](CCCCN)NC(=O)[C@H](CO)NC(=O)[C@H](CO)NC(=O)[C@H](Cc1cnc[nH]1)NC(=O)CC[C@H](NC(=O)CC[C@H](NC(=O)CC[C@H](NC(=O)CC[C@H](N)C(=O)O)C(=O)O)C(=O)O)C(=O)O)C(=O)N[C@@H](CCC(N)=O)C(=O)N(CCCCN)CC(=O)N(CC(=O)N(CC(=O)N(CCCCN)CC(=O)N(CC(=O)N(CC(=O)N(CCCCN)CC(=O)N(CC(=O)N(CC(=O)N(CCCCN)CC(=O)N(CC(=O)N(CC(N)=O)[C@@H](C)c1ccccc1)[C@@H](C)c1ccccc1)[C@@H](C)c1ccccc1)[C@@H](C)c1ccccc1)[C@@H](C)c1ccccc1)[C@@H](C)c1ccccc1)[C@@H](C)c1ccccc1)[C@@H](C)c1ccccc1 ({γGlu-γGlu-γGlu-γGlu}-HSSKLQ[Nlys][Nspe][Nspe][Nlys][Nspe][Nspe][Nlys][Nspe][Nspe][Nlys][Nspe][Nspe]-NH2) | 36 | 2.1 | 17
CC(C)C[C@H](NC(=O)[C@H](CCCCN)NC(=O)[C@H](CO)NC(=O)[C@H](CO)NC(=O)[C@H](Cc1cnc[nH]1)NC(=O)CC[C@H](NC(=O)CC[C@H](NC(=O)CC[C@H](N)C(=O)O)C(=O)O)C(=O)O)C(=O)N[C@@H](CCC(N)=O)C(=O)N(CCCCN)CC(=O)N(CC(=O)N(CC(=O)N(CCCCN)CC(=O)N(CC(=O)N(CC(=O)N(CCCCN)CC(=O)N(CC(=O)N(CC(=O)N(CCCCN)CC(=O)N(CC(=O)N(CC(N)=O)[C@@H](C)c1ccccc1)[C@@H](C)c1ccccc1)[C@@H](C)c1ccccc1)[C@@H](C)c1ccccc1)[C@@H](C)c1ccccc1)[C@@H](C)c1ccccc1)[C@@H](C)c1ccccc1)[C@@H](C)c1ccccc1 ({γGlu-γGlu-γGlu}-HSSKLQ[Nlys][Nspe][Nspe][Nlys][Nspe][Nspe][Nlys][Nspe][Nspe][Nlys][Nspe][Nspe]-NH2) | 34 | 2 | 17
C[C@@H](c1ccccc1)N(CC(N)=O)C(=O)CN(C(=O)CN(CCCCN)C(=O)CN(C(=O)CN(C(=O)CN(CCCCN)C(=O)CN(C(=O)CN(C(=O)CN(CCCCN)C(=O)CN(C(=O)CN(C(=O)CN(CCCCN)C(=O)CC[C@H](NC(=O)CC[C@H](NC(=O)CC[C@H](N)C(=O)O)C(=O)O)C(=O)O)[C@@H](C)c1ccccc1)[C@@H](C)c1ccccc1)[C@@H](C)c1ccccc1)[C@@H](C)c1ccccc1)[C@@H](C)c1ccccc1)[C@@H](C)c1ccccc1)[C@@H](C)c1ccccc1 ({γGlu-γGlu-γGlu}-[Nlys][Nspe][Nspe][Nlys][Nspe][Nspe][Nlys][Nspe][Nspe][Nlys][Nspe][Nspe]-NH2) | 17 | 1.1 | 15
